{"source": "patent US11633421B2", "about": "“Use of NAD precursors for improving maternal health and/or offspring health” (UNIVERSITY OF IOWA RESEARCH FOUNDATION, priority 2016, dated 2023)", "assay_type_in_all_cases": "in vivo, mice", "key": {"[1]": {"test_system": "lipid biosynthetic genes and lactose biosynthetic genes", "assay": "Mammary lipid and lactose biosynthetic gene expression", "conditions": "NR in the diet", "text": "FIGS. 13A-D. NR boosts prolactin circulation and mammary biosynthetic pathways for protein, fat and carbohydrate. FIG. 13A. Prolactin levels in plasma from dam on NC or NR chow. FIG. 13B. mTOR pathway is activated in NR-supplemented mammary tissue. FIG. 13C. Genes involved in lipid biosynthesis are activated in NR-supplemented mammary tissue. FIG. 13D. Genes involved in lactose synthesis pathway are activated in NR-supplemented mammary tissue. […] In addition, the size of the mammary tissue itself is greater in NR-supplemented mothers than in non-supplemented mothers (FIG. 14A)."}, "[2]": {"assay": "Elevated plus maze test of offspring", "conditions": "85 day old adult offspring; males reached statistical significance", "text": "Males are not afraid to “stick their head out”. The order of the bars from left to right are: males of normal chow (NC) mothers (white with light grey outline), followed by males of NR-supplemented mothers (filled light grey), followed by females of NC mothers (white with dark grey outline), followed by females of NR-supplemented mothers (filled dark grey). At 64 days past the mother's intervention, the willingness of 85 day old adult offspring of mice from this experiment (NC or NR-supplemented) to put their heads out in an elevated plus maze was tested. […] The clear indication is that maternal NR produces improvements in maternal behavior and/or qualitative and/or quantitative improvements in lactation sufficient to improve the development and health of offspring. The ability of the mother's 21 day micronutrition to produce beneficial effects on her offspring into adulthood was not at all anticipated."}, "[3]": {"assay": "Pup post-fasting glucose and hepatic glycogen (post-partum maternal NR)", "text": "(§1) FIGS. 17A-C. 22 day old pups of NR-supplemented mothers have improved post-fasting glucose homoeostasis with higher gluconeogenic gene expression and higher hepatic glycogen storage. Not only are the offspring of NR-supplemented mothers a bit bigger, they also have better glycemic control. This is due to better gluconeogenic gene expression and higher glycogen storage. The order of the bars from left to right are: males of normal chow (NC) mothers (white with light grey outline), followed by males of NR-supplemented mothers (filled light grey), followed by females of NC mothers (white with dark grey outline), followed by females of NR-supplemented mothers (filled dark grey). Earlier it was shown that supplementation of females during their pregnancy and during the lactation period with NR produced pups with better glycemic control. […] Particularly as NR is not directly transmitted to offspring of NR-supplemented mothers, none of these effects of maternally supplemented NR could have been anticipated."}, "[4]": {"assay": "Offspring body composition, brain mass and activity at weaning (Example 1)", "experimental": "Female C57BL/6N mice were raised in 12 hour light:dark cycles on Teklad 2920X chow (NC). For 12 weeks prior to mating with a single C57BL/6N male, females were on either NC (n=4) or NC+NR (n=4). Females were maintained on the same diet through gestation and weaning, which was at 21 days after birth. […] The improved body composition of mice from NR-supplemented mothers was entirely unexpected."}, "[5]": {"assay": "Post-partum NR supplementation: maternal body mass, food consumption, body composition", "conditions": "NR only after birth", "text": "FIGS. 6A-D. NR-supplemented mouse mothers lose weight during the 21 day lactation period without diminished food consumption (day 7-21). Delta body mass refers to day 21 post-partum maternal weight minus day 0 post-partum weight (FIG. 6A). Food consumption was day 7-21 (FIG. 6B). NR-supplemented mothers tend to lose fat (FIG. 6C) and maintain lean mass (FIG. 6D). Body composition refers to day 21 post-partum maternal fat and lean mass minus day 0 post-partum maternal fat and lean mass. A series of in vivo murine experiments were performed to evaluate whether maternally supplemented NR has the ability to improve maternal and neonatal health and development."}, "[6]": {"assay": "Post-partum NR supplementation: milk volume and macronutrient density", "experimental": "(§2) FIGS. 8A-C. Milk from NR-supplemented mothers had normal macronutrient density. Oxytocin-induced milk collection at indicated days. Protein (FIG. 8A), carbohydrate (FIG. 8B) and lipid concentration (FIG. 8C) was not changed. A series of in vivo murine experiments were performed to evaluate the effects of nicotinamide riboside on milk production. […] As shown in FIGS. 8A-C, the concentration of protein, carbohydrate and fat in the milk of NR-supplemented mothers was normal. Because there is approximately 2-fold more milk produced by NR-supplemented mothers, NR-supplemented mothers transmit more calories to their offspring, which thereby assists maternal weight loss and neonatal development. In FIG. 9A, the concentration of NAD precursor vitamins in the milk from control mothers and NR-supplemented mothers was determined. […] Oral NR was labeled with heavy atoms in the nicotinamide and ribose moieties of NR and this was provided to lactating mothers by gavage."}, "PEPCK": {"test_system": "PEPCK", "assay": "Pup liver gluconeogenic gene expression", "conditions": "males and females whose mothers were NR-supplemented", "text": "as §1"}, "[7]": {"assay": "NAD precursor vitamins in milk", "experimental": "as §2, with “A” for “FIGS. 8A-C. Milk from NR-supplemented mothers had normal macronutrient density. Oxytocin-induced milk collection at indicated days. Protein (FIG. 8A), carbohydrate (FIG. 8B) and lipid concentration (FIG. 8C) was not changed. A”"}, "[8]": {"test_system": "NAD biosynthetic genes in the mammary glands", "assay": "Mammary NAD biosynthetic gene expression and NAD metabolites", "text": "FIGS. 12A-D. Lactation and NR boost the mammary NAD program. FIG. 12A. NR promotes expression of NAD biosynthetic genes in the mammary glands. FIG. 12B. […] FIG. 12C. Lactation boosts NMN in mammary. FIG. 12D. Lactation and NR boost mammary NR in an additive manner. […] As shown in FIGS. 12B-12C, maternal NAD and NMN are elevated in the mammary of lactating mammary with respect to nonlactating mammary tissue."}, "[9]": {"conditions": "supplementing post-gestational mothers"}, "[10]": {"conditions": "NR-supplemented vs non-supplemented mothers"}}}
{"smiles": "NC(=O)c1ccc[n+]([C@@H]2O[C@H](CO)[C@@H](O)[C@H]2O)c1", "note": "[NR, nicotinamide riboside]", "values": [{"measurement": "mammary lactose biosynthetic genes", "setting": "[1]", "result": "strongly induced"}, {"measurement": "mammary lipid biosynthetic genes", "setting": "[1]", "result": "strongly induced"}, {"measurement": "willingness to put heads out in an elevated plus maze", "setting": "[2]", "result": "higher willingness"}, {"measurement": "post-fasting glucose homoeostasis of pups", "setting": "[3]; 22 day old pups of NR-supplemented mothers", "result": "improved"}, {"measurement": "glycogen stored in liver", "setting": "[3]; males and females whose mothers were NR-supplemented", "result": "stored more glycogen"}, {"measurement": "physical activity of fasted neonates", "setting": "[4]; NR in the diet of female mice", "result": "greater physical activity"}, {"measurement": "body composition (fat mass) of mice raised by NR-supplemented mothers", "setting": "[4]; at weaning", "result": "leaner"}, {"measurement": "brain mass of mice raised by NR-supplemented mothers", "setting": "[4]; at weaning", "result": "tend toward larger brains"}, {"measurement": "maternal food consumption", "setting": "[5]; day 7-21", "result": "as least as much as non-supplemented mothers"}, {"measurement": "maternal body weight", "setting": "[5]; day 21 minus day 0 post-partum", "result": "lost significant weight"}, {"measurement": "maternal fat mass", "setting": "[5]; day 21 minus day 0 post-partum", "result": "lost significant weight, specifically in fat mass"}, {"measurement": "maternal lean mass", "setting": "[5]; day 21 minus day 0 post-partum", "result": "maintained their lean mass"}, {"measurement": "concentration of carbohydrate in the milk", "setting": "[6]; NR-supplemented mothers", "result": "normal"}, {"measurement": "concentration of fat in the milk", "setting": "[6]; NR-supplemented mothers", "result": "normal"}, {"measurement": "concentration of protein in the milk", "setting": "[6]; NR-supplemented mothers", "result": "normal"}, {"measurement": "milk produced vs non-supplemented mothers", "setting": "[6]; [9]", "result": "approximately 2 fold"}, {"measurement": "milk production", "setting": "[6]; [9]", "result": "large increase"}, {"measurement": "liver expression of the gluconeogenic bypass gene PEPCK", "setting": "PEPCK", "result": "higher"}, {"measurement": "NR concentration in milk", "setting": "[7]; [10]", "result": "moderately higher"}, {"measurement": "nicotinamide (Nam) concentration in milk", "setting": "[7]; [10]", "result": "moderately higher"}, {"measurement": "NAD precursor vitamins (total B3) transmitted", "setting": "[7]; concentration coupled with larger milk volume", "result": "significantly more"}, {"measurement": "mammary NR", "setting": "[8]; lactating female mouse, above level in lactating female", "result": "large increase"}, {"measurement": "mammary NAD+ levels", "setting": "[8]; lactating mammary gland, NR supplementation", "result": "tends to further increase"}, {"measurement": "expression of NAD biosynthetic genes in lactating mammary", "setting": "[8]; mother supplemented with NR", "result": "very high level of expression"}]}
